Test system: NHBE cells
Experiment: Biolog metabolic array: substrate use by NHBE cells with or without CA09 infection
Assay type: cell-based, human
Settings: for Substrate use, 590 nm absorbance normalized to zero hour, 0 hr: Biolog PMM2, 0 hr; for Substrate use, 590 nm absorbance normalized to zero hour, 1 hr: Biolog PMM2, 1 hr; for Substrate use, 590 nm absorbance normalized to zero hour, 5 hr: Biolog PMM2, 5 hr; for Substrate use, 590 nm absorbance normalized to zero hour, 7 hr: Biolog PMM2, 7 hr
[1] = Control (uninfected) NHBE cells
[2] = Virus (CA09-infected, MOI 1) NHBE cells
[3] = Virus: CA09-infected NHBE cells, MOI 1, Biolog PMM2
[4] = Virus (CA09, MOI 1) infected NHBE cells

| SMILES | 590 nm absorbance normalized to zero hour (substrate use), 1 hr [1] | 590 nm absorbance normalized to zero hour (substrate use), 2 hr [1] | 590 nm absorbance normalized to zero hour (substrate use), 3 hr [1] | 590 nm absorbance normalized to zero hour (substrate use), 4 hr [1] | 590 nm absorbance normalized to zero hour (substrate use), 6 hr [1] | 590 nm absorbance normalized to zero hour (substrate use), 8 hr [1] | 590 nm absorbance normalized to zero hour (substrate use), 9 hr [1] | 590 nm absorbance normalized to zero hour (substrate use), 10 hr [1] | 590 nm absorbance normalized to zero hour (substrate use), 11 hr [1] | Substrate use, 590 nm absorbance normalized to zero hour, 1 hr [1] | Substrate use, 590 nm absorbance normalized to zero hour, 5 hr [1] | Substrate use, 590 nm absorbance normalized to zero hour, 7 hr [1] | 590 nm absorbance normalized to zero hour (substrate use), 1 hr [2] | 590 nm absorbance normalized to zero hour (substrate use), 2 hr [2] | 590 nm absorbance normalized to zero hour (substrate use), 3 hr [2] | 590 nm absorbance normalized to zero hour (substrate use), 4 hr [2] | 590 nm absorbance normalized to zero hour (substrate use), 6 hr [2] | 590 nm absorbance normalized to zero hour (substrate use), 8 hr [2] | 590 nm absorbance normalized to zero hour (substrate use), 9 hr [2] | 590 nm absorbance normalized to zero hour (substrate use), 10 hr [2] | further results |
| --- | --- | --- | --- | --- | --- | --- | --- | --- | --- | --- | --- | --- | --- | --- | --- | --- | --- | --- | --- | --- | --- |
| OC[C@H]1O[C@@](CO)(O[C@H]2O[C@H](CO)[C@@H](O)[C@H](O)[C@H]2O)[C@@H](O[C@H]2O[C@H](CO)[C@@H](O)[C@H](O)[C@H]2O)[C@@H]1O [D-Melezitose] | 1.47 | 1.93 | 2.23 | 2.39 | 3.85 | 3.55 | 3.84 | 4.31 | 3.97 | 1.47 | 2.80 | 3.32 | 1.67 | 2.39 | 2.73 | 2.88 | 3.57 | 3.98 | 4.49 | 4.69 | 590 nm absorbance normalized to zero hour (substrate use), 0 hr [1]: 1.00; Substrate use, 590 nm absorbance normalized to zero hour, 0 hr [1]: 1.00; 590 nm absorbance normalized to zero hour (substrate use), 0 hr [2]: 1.00; 590 nm absorbance normalized to zero hour (substrate use), 5 hr [2]: 3.35; 590 nm absorbance normalized to zero hour (substrate use), 7 hr [2]: 3.77; 590 nm absorbance normalized to zero hour (substrate use), 11 hr [2]: 5.01; 590 nm absorbance normalized to zero hour (substrate use), 0 hr [3]: 1.00; 590 nm absorbance normalized to zero hour (substrate use), 1 hr [3]: 1.67; 590 nm absorbance normalized to zero hour (substrate use), 2 hr [3]: 2.39; 590 nm absorbance normalized to zero hour (substrate use), 3 hr [3]: 2.73; 590 nm absorbance normalized to zero hour (substrate use), 4 hr [3]: 2.88; 590 nm absorbance normalized to zero hour (substrate use), 5 hr [3]: 3.35; 590 nm absorbance normalized to zero hour (substrate use), 6 hr [3]: 3.57; 590 nm absorbance normalized to zero hour (substrate use), 7 hr [3]: 3.77; 590 nm absorbance normalized to zero hour (substrate use), 8 hr [3]: 3.98; 590 nm absorbance normalized to zero hour (substrate use), 9 hr [3]: 4.49; 590 nm absorbance normalized to zero hour (substrate use), 10 hr [3]: 4.69; 590 nm absorbance normalized to zero hour (substrate use), 11 hr [3]: 5.01 |
| OC[C@H]1O[C@H](OCC2O[C@@H](O)[C@H](O)[C@@H](O)[C@@H]2O)[C@H](O)[C@@H](O)[C@H]1O (stereo partly drawn) [D-Melibiose] | 0.88 | 1.14 | 1.40 | 1.44 | 1.81 | 1.80 | 2.05 | 2.19 | 1.80 | 0.88 | 1.69 | 1.88 | 3.65 | 3.76 | 3.77 | 3.78 | 3.58 | 3.20 | 1.54 | 1.54 | 590 nm absorbance normalized to zero hour (substrate use), 0 hr [1]: 1.00; Substrate use, 590 nm absorbance normalized to zero hour, 0 hr [1]: 1.00; Substrate use, 590 nm absorbance normalized to zero hour, 0 hr [4]: 1.00; Substrate use, 590 nm absorbance normalized to zero hour, 1 hr [4]: 3.65; Substrate use, 590 nm absorbance normalized to zero hour, 5 hr [4]: 3.62; Substrate use, 590 nm absorbance normalized to zero hour, 7 hr [4]: 3.59; 590 nm absorbance normalized to zero hour (substrate use), 0 hr [2]: 1.00; 590 nm absorbance normalized to zero hour (substrate use), 11 hr [2]: 1.63 |
| OC[C@H]1O[C@H](OC[C@H]2O[C@H](O[C@]3(CO)O[C@H](CO)[C@@H](O)[C@@H]3O)[C@H](O)[C@@H](O)[C@@H]2O)[C@H](O)[C@@H](O)[C@H]1O [D-Raffinose] | 1.09 | 1.11 | 1.37 | 1.53 | 0.75 | 1.82 | 1.82 | 2.00 | 2.15 | 1.09 | 1.75 | 1.71 | 0.68 | 0.59 | 0.55 | 0.49 | 0.54 | 1.77 | 1.74 | 1.15 | 590 nm absorbance normalized to zero hour (substrate use), 0 hr [1]: 1.00; Substrate use, 590 nm absorbance normalized to zero hour, 0 hr [1]: 1.00; 590 nm absorbance normalized to zero hour (substrate use), 0 hr [2]: 1.00; 590 nm absorbance normalized to zero hour (substrate use), 5 hr [2]: 1.98; 590 nm absorbance normalized to zero hour (substrate use), 7 hr [2]: 1.92; 590 nm absorbance normalized to zero hour (substrate use), 11 hr [2]: 1.53; 590 nm absorbance normalized to zero hour (substrate use), 0 hr [3]: 1.00; 590 nm absorbance normalized to zero hour (substrate use), 1 hr [3]: 0.68; 590 nm absorbance normalized to zero hour (substrate use), 2 hr [3]: 0.59; 590 nm absorbance normalized to zero hour (substrate use), 3 hr [3]: 0.55; 590 nm absorbance normalized to zero hour (substrate use), 4 hr [3]: 0.49; 590 nm absorbance normalized to zero hour (substrate use), 5 hr [3]: 1.98; 590 nm absorbance normalized to zero hour (substrate use), 6 hr [3]: 0.54; 590 nm absorbance normalized to zero hour (substrate use), 7 hr [3]: 1.92; 590 nm absorbance normalized to zero hour (substrate use), 8 hr [3]: 1.77; 590 nm absorbance normalized to zero hour (substrate use), 9 hr [3]: 1.74; 590 nm absorbance normalized to zero hour (substrate use), 10 hr [3]: 1.15; 590 nm absorbance normalized to zero hour (substrate use), 11 hr [3]: 1.53 |
| OC[C@@H](O)[C@@H](O)[C@H](O)[C@@H](O)CO [D-Sorbitol] | 2.10 | 2.97 | 3.57 | 3.84 | 4.81 | 5.56 | 6.08 | 6.47 | 6.92 | 2.10 | 4.59 | 5.29 | 1.80 | 2.63 | 3.10 | 3.35 | 4.37 | 4.94 | 5.39 | 5.64 | 590 nm absorbance normalized to zero hour (substrate use), 5 hr [2]: 4.00; 590 nm absorbance normalized to zero hour (substrate use), 7 hr [2]: 4.63; 590 nm absorbance normalized to zero hour (substrate use), 11 hr [2]: 6.18; 590 nm absorbance normalized to zero hour (substrate use), 1 hr [3]: 1.80; 590 nm absorbance normalized to zero hour (substrate use), 2 hr [3]: 2.63; 590 nm absorbance normalized to zero hour (substrate use), 3 hr [3]: 3.10; 590 nm absorbance normalized to zero hour (substrate use), 4 hr [3]: 3.35; 590 nm absorbance normalized to zero hour (substrate use), 5 hr [3]: 4.00; 590 nm absorbance normalized to zero hour (substrate use), 6 hr [3]: 4.37; 590 nm absorbance normalized to zero hour (substrate use), 7 hr [3]: 4.63; 590 nm absorbance normalized to zero hour (substrate use), 8 hr [3]: 4.94; 590 nm absorbance normalized to zero hour (substrate use), 9 hr [3]: 5.39; 590 nm absorbance normalized to zero hour (substrate use), 10 hr [3]: 5.64; 590 nm absorbance normalized to zero hour (substrate use), 11 hr [3]: 6.18 |

— patent publication US11083725B2 (priority 2014, dated 2021)
